Experimental data as given in patent US20150105252A1, “SUBSTITUTED PYRAZOLES AS HERBICIDES” (E I DU PONT DE NEMOURS AND COMPANY, priority 2013, published 2015).

What was measured:
blackgrass = experiment: Test C preemergence; type: in vivo, Alopecurus myosuroides; conditions: for Plant response rating (scale of 0 to 100), Blackgrass: 250 g ai/ha
How it was run: (§1)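 Seeds were sown in a loam soil–sand blend and sprayed preemergence with compounds formulated in a non-phytotoxic solvent mixture containing surfactant. Postemergence plants, grown in peat/vermiculite medium to 2–18 cm (1- to 4-leaf stage), received the same formulation. After 13 to 15 days in a greenhouse, injury was rated visually against controls (0 = no effect, 100 = complete control).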

pigweed [1] = experiment: Test A postemergence; type: in vivo, Amaranthus retroflexus
How it was run: (§2)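 After sowing in a sand–loam mix, pots received compound preemergence by directed soil spray, or postemergence once plants reached the one- to two-leaf stage (2–10 cm). Formulation contained surfactant in a non-phytotoxic solvent. Injury was scored visually after ~10 greenhouse days, 0–100 scale.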

crabgrass, large [2] = experiment: Test A postemergence; type: in vivo, Digitaria sanguinalis
How it was run: as §2

johnsongrass = experiment: Test C preemergence; type: in vivo, Sorghum halepense; conditions: for Plant response rating (scale of 0 to 100), Johnsongrass: 250 g ai/ha
How it was run: as §1

barnyardgrass = experiment: Test A postemergence; type: in vivo, Echinochloa crus-galli
How it was run: as §2

corn = experiment: Test A preemergence; type: in vivo, Zea mays; conditions: preemergence
How it was run: as §2

pigweed [3] = experiment: Test A preemergence; type: in vivo, Amaranthus retroflexus; conditions: preemergence
How it was run: as §2

oilseed rape = experiment: Test C preemergence; type: in vivo, Brassica napus; conditions: for Plant response rating (scale of 0 to 100), Oilseed Rape: 250 g ai/ha
How it was run: as §1

wheat = experiment: Test C preemergence; type: in vivo, Triticum aestivum; conditions: for Plant response rating (scale of 0 to 100), Wheat: 250 g ai/ha
How it was run: as §1

galium = experiment: Test C preemergence; type: in vivo, Galium aparine; conditions: for Plant response rating (scale of 0 to 100), Galium: 250 g ai/ha
How it was run: as §1

crabgrass, large [4] = experiment: Test C preemergence; type: in vivo, Digitaria sanguinalis; conditions: for Plant response rating (scale of 0 to 100), Crabgrass, Large: 250 g ai/ha
How it was run: as §1

soybean = experiment: Test C preemergence; type: in vivo, Glycine max; conditions: for Plant response rating (scale of 0 to 100), Soybean: 250 g ai/ha
How it was run: as §1

morningglory = experiment: Test A preemergence; type: in vivo, Ipomoea spp.; conditions: preemergence
How it was run: as §2

ducksalad = experiment: Test B flood; type: in vivo, Heteranthera limosa; conditions: 250 g ai/ha, visual rating on 0 to 100 scale (0 no effect, 100 complete control), 13 to 15 days
How it was run: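 Flooded-pot test: compound dosed into 3 cm of standing water above soil when plants had two leaves. Visual control ratings (0–100) versus untreated plants after 13–15 d.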

[5] = Preemergence, 16 g ai/ha, scale 0 to 100
[6] = preemergence, 31 g ai/ha, visual rating, scale 0 to 100 (0 no effect, 100 complete control), 13 to 15 days
[7] = preemergence, 62 g ai/ha, 13 to 15 days, scale 0 to 100, 0 = no effect, 100 = complete control
[8] = preemergence, 125 g ai/ha, scale 0 to 100, 0 is no effect, 100 is complete control
[9] = Postemergence, 500 g ai/ha, visual rating after approx. 10 days, 0 to 100 scale (0 no effect, 100 complete control)
[10] = postemergence, 125 g ai/ha, about 10 days, visual rating on 0 to 100 scale (0 no effect, 100 complete control)
[11] = 125 g ai/ha, visual injury, 0 to 100 scale, approx. 10 days
[12] = 500 g ai/ha, visual injury after approx. 10 days, 0 to 100 scale (0 no effect, 100 complete control)

CCc1cc(C(=O)NOC(C)C)nn1Cc1ccnc(C(F)(F)F)c1 [Compound 101]
95: Blackgrass plant response rating (blackgrass; [8])
60: Pigweed plant response rating (pigweed [1]; [10])
5: Wheat plant response rating (wheat; [6]) | Soybean plant response rating (soybean; [6])
98: Plant response rating, Oilseed Rape (oilseed rape; [7])
70: Corn plant response rating (corn; [11]) | Plant response rating, Ducksalad (ducksalad)
30: Plant response rating, Blackgrass (blackgrass; [5])
100: Corn plant response rating (corn; [12]) | Pigweed plant response rating (pigweed [3]; [11]) | Pigweed plant response rating (pigweed [3]; [12]) | Oilseed Rape plant response rating (oilseed rape; [8]) | Plant response rating, Crabgrass, Large (crabgrass, large [4]; [7]) | Crabgrass, Large plant response rating (crabgrass, large [4]; [8]) | Morningglory plant response rating (morningglory; [12])
85: Plant response rating, Wheat (wheat; [7]) | Wheat plant response rating (wheat; [8])
75: Blackgrass plant response rating (blackgrass; [6]) | Johnsongrass plant response rating (johnsongrass; [8]) | Plant response rating, Oilseed Rape (oilseed rape; [5])
0: Plant response rating, Johnsongrass (johnsongrass; [5]) | Plant response rating, Wheat (wheat; [5]) | Plant response rating, Soybean (soybean; [5])
80: Crabgrass, Large plant response rating (crabgrass, large [2]; [10]) | Barnyardgrass plant response rating (barnyardgrass; [10]) | Plant response rating, Galium (galium; [5]) | Galium plant response rating (galium; [6]) | Plant response rating, Galium (galium; [7]) | Galium plant response rating (galium; [8]) | Crabgrass, Large plant response rating (crabgrass, large [4]; [6]) | Morningglory plant response rating (morningglory; [11])
40: Plant response rating, Johnsongrass (johnsongrass; [7]) | Plant response rating, Soybean (soybean; [7])
50: Soybean plant response rating (soybean; [8])
65: Plant response rating, Crabgrass, Large (crabgrass, large [4]; [5])
20: Johnsongrass plant response rating (johnsongrass; [6])
90: Plant response rating, Blackgrass (blackgrass; [7]) | Pigweed plant response rating (pigweed [1]; [9]) | Crabgrass, Large plant response rating (crabgrass, large [2]; [9]) | Barnyardgrass plant response rating (barnyardgrass; [9]) | Oilseed Rape plant response rating (oilseed rape; [6])

CCc1cc(C(=O)NC(C)C)nn1Cc1ccnc(C(F)(F)F)c1 [Compound 103]
100: Plant response rating (scale of 0 to 100), Blackgrass (blackgrass; Preemergence) | Blackgrass plant response rating (blackgrass; [6]) | Plant response rating, Blackgrass (blackgrass; [7]) | Blackgrass plant response rating (blackgrass; [8]) | Crabgrass, Large plant response rating (crabgrass, large [2]; [9]) | Plant response rating (scale of 0 to 100), Johnsongrass (johnsongrass; Preemergence) | Plant response rating, Johnsongrass (johnsongrass; [7]) | Johnsongrass plant response rating (johnsongrass; [8]) | Pigweed plant response rating (pigweed [3]; [11]) | Pigweed plant response rating (pigweed [3]; [12]) | Plant response rating (scale of 0 to 100), Oilseed Rape (oilseed rape; Preemergence) | Oilseed Rape plant response rating (oilseed rape; [6]) | Plant response rating, Oilseed Rape (oilseed rape; [7]) | Oilseed Rape plant response rating (oilseed rape; [8]) | Plant response rating (scale of 0 to 100), Galium (galium; Preemergence) | Galium plant response rating (galium; [6]) | Plant response rating, Galium (galium; [7]) | Galium plant response rating (galium; [8]) | Plant response rating (scale of 0 to 100), Crabgrass, Large (crabgrass, large [4]; Preemergence) | Crabgrass, Large plant response rating (crabgrass, large [4]; [6]) | Plant response rating, Crabgrass, Large (crabgrass, large [4]; [7]) | Crabgrass, Large plant response rating (crabgrass, large [4]; [8]) | Plant response rating (scale of 0 to 100), Soybean (soybean; Preemergence) | Plant response rating, Soybean (soybean; [7]) | Soybean plant response rating (soybean; [8]) | Morningglory plant response rating (morningglory; [11]) | Morningglory plant response rating (morningglory; [12])
85: Johnsongrass plant response rating (johnsongrass; [6])
70: Corn plant response rating (corn; [11])
95: Wheat plant response rating (wheat; [8])
10: Wheat plant response rating (wheat; [6])
98: Plant response rating (scale of 0 to 100), Wheat (wheat; Preemergence)
90: Pigweed plant response rating (pigweed [1]; [9]) | Pigweed plant response rating (pigweed [1]; [10]) | Crabgrass, Large plant response rating (crabgrass, large [2]; [10]) | Barnyardgrass plant response rating (barnyardgrass; [9]) | Barnyardgrass plant response rating (barnyardgrass; [10]) | Corn plant response rating (corn; [12]) | Plant response rating, Wheat (wheat; [7]) | Soybean plant response rating (soybean; [6]) | Plant response rating, Ducksalad (ducksalad)

CCOc1cc(C(=O)NCC(F)(F)F)nn1Cc1ccnc(C(F)(F)F)c1 [Compound 104]
60: Corn plant response rating (corn; [11]) | Plant response rating, Wheat (wheat; [7])
95: Plant response rating, Soybean (soybean; [7])
0: Plant response rating, Ducksalad (ducksalad)
98: Plant response rating, Galium (galium; [7]) | Plant response rating (scale of 0 to 100), Soybean (soybean; Preemergence) | Soybean plant response rating (soybean; [8])
85: Blackgrass plant response rating (blackgrass; [6]) | Soybean plant response rating (soybean; [6])
100: Pigweed plant response rating (pigweed [1]; [9]) | Pigweed plant response rating (pigweed [1]; [10]) | Plant response rating (scale of 0 to 100), Johnsongrass (johnsongrass; Preemergence) | Plant response rating, Johnsongrass (johnsongrass; [7]) | Johnsongrass plant response rating (johnsongrass; [8]) | Pigweed plant response rating (pigweed [3]; [11]) | Pigweed plant response rating (pigweed [3]; [12]) | Plant response rating (scale of 0 to 100), Oilseed Rape (oilseed rape; Preemergence) | Oilseed Rape plant response rating (oilseed rape; [6]) | Plant response rating, Oilseed Rape (oilseed rape; [7]) | Oilseed Rape plant response rating (oilseed rape; [8]) | Plant response rating (scale of 0 to 100), Galium (galium; Preemergence) | Galium plant response rating (galium; [8]) | Plant response rating (scale of 0 to 100), Crabgrass, Large (crabgrass, large [4]; Preemergence) | Crabgrass, Large plant response rating (crabgrass, large [4]; [6]) | Plant response rating, Crabgrass, Large (crabgrass, large [4]; [7]) | Crabgrass, Large plant response rating (crabgrass, large [4]; [8]) | Morningglory plant response rating (morningglory; [11]) | Morningglory plant response rating (morningglory; [12])
40: Wheat plant response rating (wheat; [6])
80: Corn plant response rating (corn; [12])
90: Plant response rating (scale of 0 to 100), Blackgrass (blackgrass; Preemergence) | Plant response rating, Blackgrass (blackgrass; [7]) | Blackgrass plant response rating (blackgrass; [8]) | Crabgrass, Large plant response rating (crabgrass, large [2]; [9]) | Crabgrass, Large plant response rating (crabgrass, large [2]; [10]) | Johnsongrass plant response rating (johnsongrass; [6]) | Barnyardgrass plant response rating (barnyardgrass; [9]) | Barnyardgrass plant response rating (barnyardgrass; [10]) | Plant response rating (scale of 0 to 100), Wheat (wheat; Preemergence) | Wheat plant response rating (wheat; [8]) | Galium plant response rating (galium; [6])
